Here are results for one compound from PMC6433957, “Phenylpyrrole fungicides act on triosephosphate isomerase to induce methylglyoxal stress and alter hybrid histidine kinase activity” (Scientific Reports, 2019).

The target in the assay is T1, triosephosphate isomerase (TPI) (Saccharomyces cerevisiae, UniProt P00942).
T1 construct: gene TPI1; commercial Triosephosphate isomerase (from S. cerevisiae, Sigma)
T1 sequence (P00942 2-248): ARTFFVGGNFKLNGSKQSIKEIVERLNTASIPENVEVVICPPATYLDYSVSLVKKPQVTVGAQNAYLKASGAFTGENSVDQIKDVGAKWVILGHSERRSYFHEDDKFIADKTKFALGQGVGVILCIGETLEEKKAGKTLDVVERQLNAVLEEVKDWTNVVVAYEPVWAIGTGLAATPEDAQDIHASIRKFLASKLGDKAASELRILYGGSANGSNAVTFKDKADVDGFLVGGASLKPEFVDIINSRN
Description: coupled alpha-glycerophosphate dehydrogenase/NADH assay (A340) with purified TPI; also in vitro methylglyoxal release by TPI (diaminobenzene adduct). Format: biochemical.

Take `N#Cc1c[nH]cc1-c1cccc2c1OC(F)(F)O2` [fludioxonil]: the IC50 was ~403 µM.

As a reminder, the IC50 is the concentration that gives 50% inhibition.
